Columns and labels:
mouse ES cells = assay: IGF2 stimulation of mouse ES cells, gene expression by real-time RT-PCR, with or without NVP-AEW541; assay type: cell-based; conditions: 800 ng/ml Igf2, 3 μM NVP-AEW541, all time points
Procedure: Mouse ES cells were cultured in defined medium and treated with 800 ng/ml mouse lgf2 protein. Gene expression was analyzed by real-time RT-PCR and normalized to β-actin. Shown is the expression level without (black boxes) and with (gray boxes) the IGF1R inhibitor 3 μM NVP-AEW541 (a pyrrolo-2,3d-pyrimidine), normalized to time 0. The bars indicate standard error.
Mouse ES cells were cultured in defined medium and treated with 800 ng/ml mouse lgf2 protein. Gene expression was analyzed by real-time RT-PCR and normalized to β-actin. Shown is the expression level without (black boxes) and with (pink boxes) the IGF1R R inhibitor 3 μM NVP-AEW541, normalized to time 0. The bar represents standard error.
For IGF2 stimulation, wild type ES cells were isolated as described above, and cultured in ESGRO Complete Basal Medium with 800 ng/ml of mouse Igf2 recombinant protein (StemCell Technologies), with or without 3 μM NVP-AEW541 (Novartis). Cells were washed with PBS twice and RNA was extracted using the RNeasy Kit (QIAGEN) at Oh, 3 h, 6 h, 10 h, and 24 h. Gene expression was assayed by real-time quantitative RT-PCR as described above.
It remained theoretically possible that the observed difference in gene expression simply reflected the over-representation of progenitor cells within the intestinal crypts, rather than a change in cellular gene expression per se. To confirm the latter, mouse embryonic stem (ES) cells were derived and plated in ESGRO Complete Clonal Grade defined medium (Chemicon), which contains no IGF2 and allows growth of undifferentiated ES cells without a feeder layer, which was done with or without 800 ng/ml of mouse Igf2 recombinant protein (StemCell Technologies). Consistent with the microarray experiments, Igf2 induced a 50% and 56% increase in Cdc6 gene expression at 3 and 6 hours, respectively, and 40% and 25% at 10 and 24 hours, respectively (FIG. 3).

Akt/PKB = assay: Microfluidic chamber single cell immunocytochemistry of Akt/PKB activation (phospho-Akt Ser 473) in LOI(+) and LOI(−) MEF cells; assay type: cell-based, mouse; conditions: 60 min coincubation with 400 ng/ml IGF2 and 3 μM NVP-AEW541
Procedure: (A) Akt/PKB activation was assayed by single cell immunocytochemistry with an antibody to phosphorylated Akt (Ser 473), in a monolithic 2-layer PDMS chip sealed with a glass coverslip, with defined media delivery controlled by a multiplexed system of valves. Live LOI(+) and LOI(−) MEF cells were stimulated within the microfluidic chips with varying doses of IGF2, with measurements at multiple time points at each IGF2 concentration. […] For each cell type, IGF2 concentration, and time point, at least 200 individual cellular measurements were obtained by digital imaging and analysis. (B) Inhibition of Akt activation by NVP-AEW541. The cells were assayed as in (A) at 60 min after coincubation with 400 ng/ml IGF2 and 3 μM NVP-AEW541 and compared with the unstimulated control. Each bar is based on measurements of >400 cells. Asterisk indicates statistical difference vs LOI(+) control (t test, P<0.001) (C) Single cell analysis of ERK activation by IGF2 in LOI(+) and LOI(−) MEF cells. Erk activation was assayed by single immunocytochemistry within microfluidic chips using an antibody to phosphorylated Erk2 from Upstate (Charlottesville, Va.). LOI(+) cells (gray) and LOI(−) cells (black) were exposed to 400 ng/ml IGF2 for indicated times. […] Error bars represent SD. Standard error bars are completely subsumed by the symbols on this scale. (D) Gene expression levels in mouse embryonic fibroblasts. Quantitative real-time PCR was performed on LOI(+) and LOI(−) MEF cells, with expression normalized to transferring receptor expression. The expression level in LOI(+) samples (black) relative to LOI(−) samples (gray) is shown. The bars indicate standard error.
The immunostaining automation device consists of a monolithic 2-layer PDMS chip sealed with a glass coverslip, fabricated using techniques described previously (Unger et al., Science 288 (2000) 288:113-116). Multiplexing valves were actuated by pressure lines connected to off-device solenoid valves. The chip architecture, performance and validation are all described in a separate manuscript submitted for publication. The glass substrate of the cell culture chamber was coated by introducing 0.1% gelatin (Sigma) into the device for at least 30 minutes, then cells were introduced and allowed to attach for 3 hours. IGF2 (StemCell Technologies) dissolved in cell media was introduced to each chamber at different times so that the end of all stimulation periods coincided. To end the experiment, ice-cold PBS (Invitrogen) was introduced into all chambers followed immediately by 4% paraformaldehyde (Electron Microscopy Systems) for 20 minutes. Cells were permeabilized with 0.1% Triton X-100 (Sigma) for 5 min and blocked with 10% goat serum (Sigma), with PBS washes in between. […] Using custom MATLAB (Mathworks) programs, the images were […], stitched together, and quantified. […] For each cell type and time point, 200-300 cells were analyzed in this manner to ensure statistical significance.
Since both the endogenous IGF2 and IGF2 used in the MEF experiments are susceptible to IGF2 binding protein (IBP)-based inactivation, the dose of an IBP-resistant IGF2 variant was determined producing similar levels of Akt activation. […]

With `Nc1ncnc2c1c(-c1cccc(OCc3ccccc3)c1)cn2C1CC(CN2CCC2)C1` (stereo not drawn) [NVP-AEW541] the “effect on IGF2-induced increased expression of Cdc6” value (mouse ES cells) was “completely abrogated”, the “inhibition of IGF2-triggered Akt activation” value (Akt/PKB; LOI(+) MEF cells) was “significantly below the baseline” and the “inhibition of IGF2-triggered Akt activation” value (Akt/PKB; LOI(−) MEF cells) was “inhibited to the baseline levels”.

From patent US20110014204A1, “Cancer Chemoprevention Strategy Based on Loss of Imprinting of IGF2” (priority 2006, published 2011)
